ChEMBL document CHEMBL3045568, “Novel 2-pyrazoline derivatives as potential anticonvulsant agents” (Med Chem Res, 2013)
Activity calls are given as the source filed them. The rule behind the calls is not given here.

Key:
Mus musculus [1] = experiment: Anticonvulsant activity in albino Mus musculus (mouse) assessed as protection against subcutaneous pentylenetetrazol-induced seizures at 300 mg/kg, ip after 4 hr relative to control; assay type: functional, organism-based; set-up: dose 300 mg/kg
[2] = Partition coefficient, log P of the compound; assay type: physicochemical; details: octanol/water
Mus musculus [3] = experiment: Anticonvulsant activity in albino Mus musculus (mouse) assessed as protection against subcutaneous pentylenetetrazol-induced seizures at 300 mg/kg, ip after 0.5 hr relative to control; assay type: functional, organism-based; set-up: dose 300 mg/kg
Mus musculus [4] = experiment: Anticonvulsant activity in albino Mus musculus (mouse) assessed as protection against subcutaneous pentylenetetrazol-induced seizures at 30 mg/kg, ip after 4 hr relative to control; assay type: functional, organism-based; set-up: dose 30 mg/kg
Mus musculus [5] = experiment: Anticonvulsant activity in albino Mus musculus (mouse) assessed as protection against maximal electroshock-induced seizures at 300 mg/kg, ip after 4 hr relative to control; assay type: functional, organism-based; set-up: dose 300 mg/kg
Mus musculus [6] = experiment: Anticonvulsant activity in albino Mus musculus (mouse) assessed as protection against subcutaneous pentylenetetrazol-induced seizures at 100 mg/kg, ip after 4 hr relative to control; assay type: functional, organism-based; set-up: dose 100 mg/kg
Mus musculus [7] = experiment: Neurotoxicity in albino Mus musculus (mouse) assessed as motor impairment at 300 mg/kg, ip after 0.5 hr relative to control; assay type: toxicity, organism-based; set-up: dose 300 mg/kg, route intraperitoneal; details: in vivo
Mus musculus [8] = experiment: Neurotoxicity in albino Mus musculus (mouse) assessed as motor impairment at 100 mg/kg, ip after 0.5 hr relative to control; assay type: toxicity, organism-based; set-up: dose 100 mg/kg, route intraperitoneal; details: in vivo
Mus musculus [9] = experiment: Anticonvulsant activity in albino Mus musculus (mouse) assessed as protection against subcutaneous pentylenetetrazol-induced seizures at 100 mg/kg, ip after 0.5 hr relative to control; assay type: functional, organism-based; set-up: dose 100 mg/kg
Mus musculus [10] = experiment: Anticonvulsant activity in albino Mus musculus (mouse) assessed as protection against maximal electroshock-induced seizures at 30 mg/kg, ip after 4 hr relative to control; assay type: functional, organism-based; set-up: dose 30 mg/kg
Mus musculus [11] = experiment: Anticonvulsant activity in albino Mus musculus (mouse) assessed as protection against maximal electroshock-induced seizures at 30 mg/kg, ip after 0.5 hr relative to control; assay type: functional, organism-based; set-up: dose 30 mg/kg
Mus musculus [12] = experiment: Anticonvulsant activity in albino Mus musculus (mouse) assessed as protection against maximal electroshock-induced seizures at 300 mg/kg, ip after 0.5 hr relative to control; assay type: functional, organism-based; set-up: dose 300 mg/kg
Mus musculus [13] = experiment: Anticonvulsant activity in albino Mus musculus (mouse) assessed as protection against maximal electroshock-induced seizures at 100 mg/kg, ip after 0.5 hr relative to control; assay type: functional, organism-based; set-up: dose 100 mg/kg
Mus musculus [14] = experiment: Neurotoxicity in albino Mus musculus (mouse) assessed as motor impairment at 30 mg/kg, ip after 4 hr relative to control; assay type: toxicity, organism-based; set-up: dose 30 mg/kg, route intraperitoneal; details: in vivo
Mus musculus [15] = experiment: Anticonvulsant activity in albino Mus musculus (mouse) assessed as protection against subcutaneous pentylenetetrazol-induced seizures at 30 mg/kg, ip after 0.5 hr relative to control; assay type: functional, organism-based; set-up: dose 30 mg/kg
Mus musculus [16] = experiment: Anticonvulsant activity in albino Mus musculus (mouse) assessed as protection against maximal electroshock-induced seizures at 100 mg/kg, ip after 4 hr relative to control; assay type: functional, organism-based; set-up: dose 100 mg/kg
Mus musculus [17] = experiment: Neurotoxicity in albino Mus musculus (mouse) assessed as motor impairment at 30 mg/kg, ip after 0.5 hr relative to control; assay type: toxicity, organism-based; set-up: dose 30 mg/kg, route intraperitoneal; details: in vivo
Mus musculus [18] = experiment: Neurotoxicity in albino Mus musculus (mouse) assessed as motor impairment at 300 mg/kg, ip after 4 hr relative to control; assay type: toxicity, organism-based; set-up: dose 300 mg/kg, route intraperitoneal; details: in vivo
Mus musculus [19] = experiment: Neurotoxicity in albino Mus musculus (mouse) assessed as motor impairment at 100 mg/kg, ip after 4 hr relative to control; assay type: toxicity, organism-based; set-up: dose 100 mg/kg, route intraperitoneal; details: in vivo
Mus musculus [20] = experiment: Anticonvulsant activity in albino Mus musculus (mouse) assessed as protection against maximal electroshock-induced seizures at 30 mg/kg, sc after 0.5 hr relative to control; assay type: functional, organism-based; set-up: dose 30 mg/kg
Mus musculus [21] = experiment: Neurotoxicity in albino Mus musculus (mouse) assessed as motor impairment at 30 mg/kg, sc after 4 hr relative to control; assay type: toxicity, organism-based; set-up: dose 30 mg/kg, route subcutaneous; details: in vivo
Mus musculus [22] = experiment: Anticonvulsant activity in albino Mus musculus (mouse) assessed as protection against subcutaneous pentylenetetrazol-induced seizures at 30 mg/kg, sc after 4 hr relative to control; assay type: functional, organism-based; set-up: dose 30 mg/kg
Mus musculus [23] = experiment: Anticonvulsant activity in albino Mus musculus (mouse) assessed as protection against maximal electroshock-induced seizures at 30 mg/kg, sc after 4 hr relative to control; assay type: functional, organism-based; set-up: dose 30 mg/kg
Mus musculus [24] = experiment: Neurotoxicity in albino Mus musculus (mouse) assessed as motor impairment at 30 mg/kg, sc after 0.5 hr relative to control; assay type: toxicity, organism-based; set-up: dose 30 mg/kg, route subcutaneous; details: in vivo
Mus musculus [25] = experiment: Anticonvulsant activity in albino Mus musculus (mouse) assessed as protection against subcutaneous pentylenetetrazol-induced seizures at 30 mg/kg, sc after 0.5 hr relative to control; assay type: functional, organism-based; set-up: dose 30 mg/kg

Row | Structure (SMILES) | Activity (Mus musculus [1]) | logP [2] | Activity (Mus musculus [3]) | Activity (Mus musculus [4]) | Activity (Mus musculus [5]) | Activity (Mus musculus [6]) | Activity (Mus musculus [7]) | Activity (Mus musculus [8]) | Activity (Mus musculus [9]) | Activity (Mus musculus [10]) | Activity (Mus musculus [11]) | Activity (Mus musculus [12]) | Activity (Mus musculus [13]) | Activity (Mus musculus [14]) | Activity (Mus musculus [15]) | Activity (Mus musculus [16]) | Activity (Mus musculus [17]) | Activity (Mus musculus [18]) | Activity (Mus musculus [19]) | further results
1 | NC(=S)N1N=C(c2ccccn2)CC1c1ccc(OCc2ccccc2)cc1 (centres undefined) | inactive | 1.17 | inactive | inactive | inactive | inactive | Toxic | Toxic | inactive | inactive | inactive | inactive | inactive | Non-toxic | inactive | inactive |  |  |  | 
2 | CCNC(=S)N1N=C(c2ccccn2)CC1c1cccc(Cl)c1 (centres undefined) | inactive | 3.2 | Active | inactive | inactive | inactive |  | Non-toxic | inactive | inactive | inactive | Active | Active | Non-toxic | inactive | inactive | Non-toxic | Non-toxic | Non-toxic | 
3 | CCC1(c2ccccc2)C(=O)NC(=O)NC1=O [PHENOBARBITAL] |  |  |  |  |  |  |  |  |  |  |  |  |  |  |  |  |  |  |  | Activity (Mus musculus [20]): Active; Activity (Mus musculus [21]): Non-toxic; Activity (Mus musculus [22]): Active; Activity (Mus musculus [23]): Active; Activity (Mus musculus [24]): Non-toxic; Activity (Mus musculus [25]): Active
4 | COc1ccc(C2CC(c3ccccn3)=NN2C(N)=S)cc1 (centres undefined) | inactive | 2.82 | Active | inactive | inactive | inactive | Non-toxic | Non-toxic | Active | inactive | inactive | inactive | inactive | Non-toxic | inactive | inactive | Non-toxic | Non-toxic | Non-toxic | 
5 | NC(=S)N1N=C(c2ccccn2)CC1c1ccc(Cl)cc1 (centres undefined) | inactive | 4.21 | Active | inactive | Active | inactive |  | Non-toxic | inactive | inactive | inactive | Active | Active | Non-toxic | inactive | inactive | Non-toxic | Non-toxic | Non-toxic | 
6 | CCNC(=S)N1N=C(c2ccccn2)CC1c1cccc2ccccc12 (centres undefined) | Active | 4.7 | Active | inactive | Active | inactive | Non-toxic | Non-toxic | Active | inactive | inactive | Active | Active | Non-toxic | inactive | inactive | Non-toxic | Non-toxic | Non-toxic | 
7 | NC(=S)N1N=C(c2ccccn2)CC1c1cccc2ccccc12 (centres undefined) | Active | 4.51 | Active | inactive | Active | inactive | Non-toxic | Non-toxic | Active | inactive | Active | Active | Active | Non-toxic | inactive | Active | Non-toxic | Non-toxic | Non-toxic | 
8 | CCNC(=S)N1N=C(c2ccccn2)CC1c1ccc(OCc2ccccc2)cc1 (centres undefined) | inactive | 1.46 | Active | inactive | inactive | inactive |  | Non-toxic | inactive | inactive | inactive | Active | Active | Non-toxic | inactive | inactive | Non-toxic | Non-toxic | Non-toxic | 
9 | NC(=S)N1N=C(c2ccccn2)CC1c1cccc(Cl)c1 (centres undefined) | Active | 4.15 | Active | inactive | Active | inactive |  | Non-toxic | inactive | inactive | Active | Active | Active | Non-toxic | inactive | inactive | Non-toxic | Non-toxic | Non-toxic | 
10 | CCNC(=S)N1N=C(c2ccccn2)CC1c1ccc(OC)cc1 (centres undefined) | Active | 2.92 | Active | inactive | inactive | inactive | Non-toxic | Non-toxic | Active | inactive | inactive | inactive | inactive | Non-toxic | Active | inactive | Non-toxic | Non-toxic | Non-toxic | 
11 | CCNC(=S)N1N=C(c2ccccn2)CC1c1ccc(Cl)cc1 (centres undefined) | inactive | 3.64 | Active | inactive | inactive | inactive | Non-toxic | Non-toxic | inactive | inactive | inactive | Active | Active | Non-toxic | inactive | inactive | Non-toxic | Non-toxic | Non-toxic | 
